Our source for the IC50 values is ChEMBL document CHEMBL1151218, “A new ursane triterpene from Monochaetum vulcanicum that inhibits DNA polymerase beta lyase” (J Nat Prod, 2004).

By IC50 is commonly meant the concentration needed to halve the response being measured. Low values mean greater potency in that assay, high ones weaker potency in that assay.

The target in the assay is DNA polymerase beta (Homo sapiens, UniProt P06746). Description: Inhibition of DNA polymerase beta lyase activity.
For `C[C@H]1[C@H](C)CC[C@]2(C(=O)O)CC[C@]3(C)C(=CC[C@@H]4[C@@]5(C)CC[C@H](OC(=O)/C=C/c6ccc(O)cc6)C(C)(C)[C@@H]5CC[C@]43C)[C@H]12`, the IC50 was over 50 µM.

`CC(=O)O[C@H]1[C@H](O)C[C@]2(C)[C@H]3CC=C4[C@@H]5[C@@H](C)[C@H](C)CC[C@]5(C(=O)O)CC[C@@]4(C)[C@]3(C)CC[C@H]2C1(C)C` had an IC50 of 21.5 µM.

For `C[C@H]1[C@H](C)CC[C@]2(C(=O)O)CC[C@]3(C)C(=CC[C@@H]4[C@@]5(C)C[C@@H](O)[C@H](O)C(C)(C)[C@@H]5CC[C@]43C)[C@H]12` [COROSOLIC ACID], half-maximal inhibition (IC50) required 12.6 µM. This IC50 lies about 1.7-fold lower than the previous one.

`CC[C@H](CC[C@@H](C)[C@H]1CC[C@H]2[C@@H]3CC=C4C[C@@H](O[C@@H]5O[C@H](CO)[C@@H](O)[C@H](O)[C@H]5O)CC[C@]4(C)[C@H]3CC[C@]12C)C(C)C` [SITOGLUSIDE] registered a concentration for half-maximal inhibition (IC50) of 26.5 µM. This IC50 is about 2.1-fold higher than that of the molecule before.

Take `C[C@H]1[C@H](C)CC[C@]2(C(=O)O)CC[C@]3(C)C(=CC[C@@H]4[C@@]5(C)CC[C@H](O)C(C)(C)[C@@H]5CC[C@]43C)[C@H]12` [URSOLIC ACID]: half-maximal inhibition (IC50) required 18.6 µM.
